Test results from patent US11065275B2, “Cross-linking agents and associated methods” (University of Utah Research Foundation, priority 2016, dated 2021).
Like-named read-outs stand apart in the source and are kept apart here.

Legend:
[1] = system: lysyl oxidase (LOX); conditions: 0.0016 mg/mL CuSO4 in BSS vs BSS control
Experimental: As a parallel assay, we added 500 uM aminopropionitrile (BAPN) which can diminish LOX activity completely. The fluorescence of oxidized Amplex red was recorded every 10 minutes using fluorescence plate reader.

[2] = system: cornea of New Zealand white rabbits; conditions: 0.0025 mg/ml once or three times per day, 0.025 mg/ml once per day; weekly for 5 weeks; mean K and at 3 mm
Experimental: Copper sulfate (CuSO4) at 0.0025 mg/ml was administered to New Zealand white rabbits at a dose of once per day and three times per day. Additionally, a high concentration sample of 0.025 mg/ml was administered to New Zealand with rabbits once per day during the treatment period. Three different controls were administered either no drops, BSS, or artificial tears. Each of the 6 groups included 6 test subjects each. Topography images were taken before treatment and weekly for 5 weeks. Diopter measurements were the mean K values and at 3 mm. These values were compared to diopter measurements in laser cross-linked corneas after 1 month and 1 year.

[3] = system: human cadaver corneas and rabbit corneas
Experimental: Cornea radial strain measurements were performed on human cadaver corneas and on rabbit corneas. Human cadaver corneas (n=2 pairs) were cultured as previously mentioned in Example 1. The treated group was immersed in 0.0016 mg/ml CuSO4 for 2 weeks. The samples also contained a small portion of sclera at both ends. Mineral oil was applied on the surface of the sclera-cornea-sclera strip to minimize tissue dehydration. Rabbit corneas were divided into 4 groups. Two groups were treatment groups receiving either CuSO4 0.0025 mg/ml three times per day or CuSO4 0.0025 mg/ml once per day. Two groups served as control receiving only BSS.
The sample was coupled between a motor and a transducer that applied a controlled pressure from 5-30 mmHg and measured the resultant radial strain. The sample length between the two gripping jaws was approximately 10 mm. Sample geometric information, including width and thickness, was input into the Rheometrics System Analyzer (RSA) control panel. Sample thickness was measured by an ultrasound pachymeter (DGH 550 Pa-chette2; DGH Technology, Exton, Pa.).

[4] = system: rabbits; conditions: 0.0025 mg/ml TID or QD
Experimental: Copper sulfate (CuSO4) solution was prepared at a concentration of 0.0025 mg/ml and administered three times a day (TID) or once a day (QD) to rabbits. An anterior segment evaluation was performed with slit-lamp biomicroscopy and Heidelberg Spectralis anterior segment optical coherence tomography (AS-OCT). Two rabbits (n=4 eyes) were sacrificed at each of day 1, week 1, week 4, and week 6 for copper levels in eye tissues and compared to control (no drops) rabbits. Aqueous humor, vitreous, retina, cornea, lens, and blood samples were analyzed for copper ions using inductively coupled plasma mass spectrometry (ICP-MS).
Rabbits (n=2) were sacrificed after 42 days by intravenous injection of 0.3 ml/kg euthanasia solution and the eyes were enucleated for histological evaluations and reading for signs of inflammation, tissue damage, scarring and fibrosis. The anterior section of the eyes were fixed in 10% formaldehyde-glutaraldehyde solution, dehydrated in a graded series of alcohol, embedded in paraffin, and sectioned with a microtome. The sections were stained with appropriate staining (hematoxylin and eosin and Masson Trichrome).

[5] = system: Human Keratoconus Cornea; conditions: corneas treated 1 week with 0.0016 mg/ml CuSO4 vs untreated, HPLC
Experimental: Each Human Keratoconus Cornea was bisected. One half was treated with 0.0016 mg/ml CuSo4 in Optisol solution for 1 week and other half was left untreated. After one week each cornea was kept in negative 80° C. for future analysis.
The cornea samples were washed with PBS pH 7.4 and powdered in liquid nitrogen and pulverized with a Freezer Mill. Cornea samples were demineralized with 0.5 M EDTA in 0.05 M Tris buffer, pH 7.4, for 48 h at 4° C. The insoluble fraction was washed twice with distilled water by centrifugation at 5000 g at […] for 20 min and lyophilized. The lyophilized sample was hydrolyzed with constantly boiling redistilled 6 N HCl in vacuo for 24 h at 110° C. The hydrolysate was neutralized with 2.5 N NaOH and dissolved in distilled water. Analyses were performed for Lysinonorleucine (LNL) and Histidinohydroxylysinonorleucine (HHL) separately by HPLC.
Amino acid analysis is an important application area in protein chemistry and food analysis. Many different applications exist in this field. Automated pre-column derivatization followed by reverse phase LC has become a useful procedure for efficient analysis, since it is an easy and simple to use technique. An Agilent 1290 Infinity LC System was used with automated pre-column derivatization for fast and sensitive analysis of Lysinonorleucine (LNL). The column used for this method is Agilent ZORBAX Eclipse Plus RRHD C18 (3.0 mm×50 mm, 1.8 μm) and Mobile phase consisted of Solvent A: 10 mM disodium phosphate+10 mM sodium tetraborate pH 8.2 and Solvent B: ACN/MeOH/H2O (45:45:10)
To […] of the protein hydrolysate sample (less than 3 mM as the total amino acid concentration), 50 μl of 1.5 mM Ne-methyl-L-lysine hydrochlo ide (Mly) in 0.26 M borate buffer, pH 9.5, and 50 μl of acetone were added in a 1.5-ml reaction vial. Then 25 μl of FMOC-Cl reagent (6 mM FMOC-Cl in acetone) was added and the mixture was allowed to react for 2 min at room temperature. The reaction mixture was extracted twice with […] of pentane to remove excess FMOC-Cl reagent. The aqueous phase was subjected to chromatography.
Cornea cross-linking is tissue specific. The predominant cross-links generated in the human cornea are lysinonorleucine (LNL). LNL are the building blocks for subsequent multivalent cross-links such as the histidinyl-hydroxylysinonorleucine (HHL). Normal and keratoconic human corneas were treated for 1 week with 0.0016 mg/ml CuSO4. Then, an HPLC analysis was performed to measure levels of LNL (FIGS. 2A-2C) and HHL (FIGS. 3A-3C).

O=S(=O)([O-])[O-].[Cu+2] [CuSO4, copper (II) sulfate]
lox enzyme activity ([1]; keratoconus corneal fibroblast cells): dramatically increased | lox enzyme activity ([1]; normal corneal fibroblast cells): dramatically increased | decrease in diopter measurements vs control groups [2]: greater decrease | corneal stiffness ([3]; after copper sulfate treatment vs untreated (FIG. 4)): marked increase | average peak radial strain induced by ocular pulse, treated vs untreated corneas ([3]; at 20 mmHg): about 1.5 times lower | corneal biomechanics ([3]; compared with laser cross-linking (FIG. 5)): comparable to that seen with laser cross-linking | increase in corneal strength ([3]; from radial strain at 20 mmHg, treated vs untreated): ~50% | corneal haze [4]: no observed corneal haze | effect on electroretinography (ERG) measurements [4]: no effect | toxicity in dissected eye tissues ([4]; histology after 6 weeks): no observed toxicity | HHL (histidinyl-hydroxylysinonorleucine) cross-link levels [5]: HHL cross-links are also observed | LNL (lysinonorleucine) cross-link levels [5]: LNL cross-links were observed | HHL (histidinyl-hydroxylysinonorleucine) cross-link levels ([5]; listed as copper): significant increase | LNL (lysinonorleucine) cross-link levels ([5]; listed as copper): significant increase
